# Measurements published in patent publication US11045519B2, “Arginine-rich polypeptide compositions and methods of using same” (UNM Rainforest Innovations, priority 2017, dated 2021).
# Tests used:
# HPV16 PsVs [1] = assay: Mouse cervicovaginal HPV16 PsV infection model (luciferase in vivo imaging); set-up: species or system BALB/c mice; details: 2 μM in 3% CMC, intravaginal, cytobrush abrasion, imaging 48 h after PsV, n=3
# Excerpt: FIG. 11. PolyR inhibits HPV16 infectivity in vivo. (A). Six-week-old to eight-week-old female BALB/c mice were exposed to HPV16 PsVs transducing Luciferase (5×10^8 infection units (IU)/animal). (B). Percent of in vivo infectivity represents % of infection calculated from luciferase readouts from panel A. Error bars represents SD n=3. Luciferase raw data (average radiance photons/s/cm^2) of polyR-untreated mice is considered as 100%.
# Until recently, in vivo animal studies on infectivity of HPV were problematic, because productive papillomavirus infection is species-restricted and tissue-restricted, and traditional models use animal papillomaviruses in closely related or native host species. However, a recently developed mouse model of cervicovaginal infection using HPV16 PsVs has overcome such restrictions (Roberts et al., 2007. Nature Medicine 13:857-861). In the original study, 3% carboxymethylcellulose (CMC) was used to mimic the viscosity of a typical vaginal gel and determined that disruption of genital epithelium by chemical (Nonoxynol-9) or mechanical (using cytobrush) injury is crucial for efficient HPV PsV infection. Nonoxynol-9 (N-9) is a highly toxic strong non-ionic detergent that disturbs the normal architecture of animal and human genital epithelium. […] The average radiance per mouse was measured in photons/s/cm^2/sr for a set region (of equal dimensions) among mice.
# HPV16 PsVs [2] = assay: HPV16 PsV binding to HaCaT cells at 4° C. (L1 immunoblot / immunofluorescence); format: cell-based
# Description: FIG. 4. PolyR treatment of host cells inhibits HPV16 binding to cells. (A) Confluent HaCaT cell monolayers were treated with 1 μM polyR (in CM) for 30 minutes, before adding 100 vge/cell HPV16 PsVs, and incubated at 4° C. for one hour (to promote binding but prevent virus internalization). After washing out of unbound virus, cells were lysed (25 mM Tris pH7.5, 150 mM NaCl, 1% Triton-X100 supplemented with protease inhibitors) and centrifuged at 16,000×g for 10 minutes. Protein concentrations in supernatant were measured using the Bradford method (Bio-Rad Laboratories, Inc., Hercules, Calif.). Samples were boiled in SDS-containing sample buffer, and aliquots containing equal amount of protein ([…] to 200 μg) separated by SDS-polyacrylamide gel electrophoresis (SDS-PAGE), using 10% gel. Proteins were transferred onto polyvinylidene difluoride (PVDF) membranes and subjected to analysis using anti-HPV16 L1 primary antibody (Camvir-1, sc-47699, Santa Cruz Biotechnology, Inc., Dallas, Tex.;1:5000 dilution) for detection of HPV16 major capsid protein, L1. Proteins were visualized by enhanced chemiluminescence (SUPERSIGNAL West Pico Chemiluminescent Substrate, Thermo Fisher Scientific, Inc., Waltham, Mass.) and exposed to film (Phenix Research Products, Candler, N.C.). (B) Immunofluorescence assays were performed essentially as described previously (Surviladze et al., 2012. PLoS Pathogens 8:e1002519). HaCaT cells were grown on coverslips at approximately 50% confluence and treated with 3 μM polyR for 30 minutes at 37° C. before the addition of 1000 vge of HPV16 PsVs per coverslip. Cells were incubated for one hour at 4° C. and washed several times with PBS, before the fixation with 4% paraformaldehyde (PFA). BSA-blocked cells were incubated with rabbit polyclonal HPV16 antibody (antibody was affinity-purified from rabbit anti-HPV VLP antisera). PBS-washed slides were incubated with donkey AF488-conjugated anti-rabbit IgG secondary antibody; phalloidin-rhodamine (Cytoskeleton, Inc., Denver, Colo.) was used for actin staining. After extensive washing with PBS, cells were mounted in Gold Antifade and immunofluorescent (IF) images were captured by confocal photo-microscopy.
# (A) HPV16 PsVs were bound to HaCaT cells (one hour at 4° C.), before the addition of […]. After a one-hour incubation at 4° C., unbound virus was washed out, cells were lysed and analyzed for the content of HPV L1 protein. (B) HaCaT cells were exposed to HPV 16 PsV at 4° C. in the absence of polyR, simultaneously with polyR (0 h), or one hour after polyR treatment (+1 h). After extensive washing with PBS, cells were lysed and analyzed for the content of HPV16 L1 protein.
# FIG. 16. PrS pretreated cells binding of HPV16. Confluent HaCaT cell monolayers were treated with 1 μM PrS (in CM) before the addition of 200 vge/cell HPV16 PsVs and incubated at 4° C. for one hour (conditions to prevent virus internalization). After washing out of unbound virus, cells were lysed (25 mM Tris pH7.5, 150 mM NaCl, 1% Triton-X100 supplemented with protease inhibitors) and centrifuged at 16,000×g for 10 minutes. Protein concentrations in supernatant were measured using the Bradford method (Bio-Rad Laboratories, Inc., Hercules, Calif.). Samples were boiled in SDS-containing sample buffer, and aliquots containing equal amount of protein (˜50 μg to 200 μg) separated by SDS-polyacrylamide gel electrophoresis (SDS-PAGE) using 10% gel. […]
substance,measurement,setting,value
poly-L-arginine [polyR],reduction of infection in vivo,HPV16 PsVs [1],50%
same,HPV16 binding to pre-treated cells (L1 immunoblot),"HPV16 PsVs [2]; 1 μM, 30 min pre-treatment, 100 vge/cell, 4° C. 1 h",almost completely blocked HPV16 binding
same,HPV16 bound to cell surface (confocal microscopy),"HPV16 PsVs [2]; 3 μM, 30 min pre-treatment, 4° C. 1 h",dramatically reduced detection of HPV bound to the cell surface
same,reduction of HPV binding to cells,"HPV16 PsVs [2]; polyR and HPV added simultaneously, 4° C.",≈ 50%
